# Assay results: patent publication US10875829B1, “Azetidine derivatives useful as modulators of cortical catecholaminergic neurotransmission” (Integrative Research Laboratories Sweden AB, priority 2016, dated 2020)
# Counter-ions that a name gives are not always drawn. Marks after values point to notes of the source that are not given here.
# Key:
# Arc mRNA = test: m-RNA analysis: tissue levels of Arc in brain regions; assay type: in vivo, rats; conditions: 33 μmol/kg s.c., 65 min before sacrifice, control saline, n=5
# Procedure: Sesack et al. (Anatom Substr Glut-Dopamine Inter. Annals of NY AcadSci, 2003, 1003; 36-52) discloses that the dopaminergic systems of the brain interact strongly with central glutamate neurotransmission. To investigate potential effects of compounds as disclosed herein on cortical and striatal NMDA type glutamate receptor related synaptic signaling, Arc mRNA induction was assessed upon acute administration. Arc (Arc/Arg3.1-activity regulated cytoskeleton-associated protein/activity-regulated gene 3.1; (Link W et al., Proc Natl Acad Sci, USA, 1995, 92; 5734-8 and Lyford G L et al., Neuron, 1995, 14; 433-45), is an immediate early gene (IEG), induced by synaptic activity, whose expression and localization at synaptic sites is triggered specifically by NMDA receptor activation and strongly related to neural plasticity (Steward and Worley, Neuron, 2001, 30; 227-40, Kawashima et al., PNAS, 2009, 106(1); 316-21 and Bramham et al., Exp Brain Res, 2010, 200; 125-40).
# Animals were killed 60 min after the injection of the drugs by decapitation and the brains were dissected into […] different areas: Limbic system (containing nucleus accumbens, most parts of the olfactory tubercle, ventral pallidum), striatum, frontal cortex, hippocampus and the remaining cortex.
# Total RNA was prepared by the guanidin isothiocyanate method (Chomczynski P and Sacchi N, Anal Biochem, 1987, 162(1); 156-9). RNA pellets were solved in RNAse-free water and stored at −80° C. The sample concentration was determined spectrophotometrically by a NanoDrop ND1000 (Saveen Werner). A quality indicator number and an integrity number of r-RNA were measured with an Experion (Bio-rad).
# A two-step reversed transcription was performed by using a SuperScript III kit (Invitrogen). 1 μg of total RNA was reverse transcribed with 5 μl 2XRT Reaction Mix, 1 μl RT Enzyme Mix, in a total volume adjusted to 10 μl with DEPC-treated water. 1 U of E. coli RNase H was added. c-DNA was diluted 40 times and stored at −20° C.
# Three sequences (one gene of interest and two reference genes) were amplified together in a triplex PCR-reaction. For real-time PCR measurements: 5 μl of c-DNA reaction was amplified in a 20 μl reaction mixture containing 10 μl PerfeCta Multiplex qPCR Supermix (Quanta, VWR), 3.5 μl RNAse-free water, 0.15 μM of each primer and 0.1 μM of each probe. Real-time PCR was measured on CFX96 (Bio-rad) using the following settings for all genes: 3 min pre-incubation at 95° C. followed by 40 cycles of denaturation at 95° C. for 15 s, annealing and elongation at 60° C. for 1 minute.
# Reference genes are HPRT and cyclophilin.
# Compounds and saline solution (control) as indicated above were administered s.c. 65 min before sacrificing the animals. Results are presented as percent of control means±SEM. Statistical significance was assessed using Student's t-test (2 tailed) vs controls. * denotes p<0.05, ** p<0.01, n=5, *** p<0.001, n=5.
# Correct PCR products are confirmed by agarose gel electrophoresis (2%) PCR products are purified with PCR purification kit from Qiagen (Valencia, Calif., USA). All genes are sequenced at MWG, Germany. The amounts of gene of interests are normalized with the two reference genes HPRT and cyclophilin A with the equation delta-delta CT.
# [1] = test system: human alpha 2A adrenergic receptor and/or the non-selective adrenergic alpha 2 receptor; test: In vitro binding studies, adrenergic alpha 2 receptors ([3H]RX 821002); design: species or system human and/or rat; conditions: concentration of 10 μM
# Procedure: (The measurement was performed as described in Langin, D., Lafontan, M., Stilling, M. R. and Paris, H. (1989), [3H]RX821002: a new tool for the identification of alpha2A-adrenoceptors, Eur. J. Pharmacol. 167: 95.)
# Cell membrane homogenates (48 μg protein) were incubated for 60 min at 22° C. with 1 nM [3H]RX 821002 in the absence or presence of the test compound in a buffer containing 50 mM Tris-HCl (pH 7.4), 2 mM MgCl2 and 1 mM EDTA. Nonspecific binding was determined in the presence of 100 μM (−)epinephrine. Following incubation, the samples were filtered rapidly under vacuum through glass fiber filters (GF/B, Packard) presoaked with 0.3% PEI and rinsed several times with ice-cold 50 mM Tris-HCl using a 96-sample cell harvester (Unifilter, Packard). The filters were dried then counted for radioactivity in a scintillation counter (Topcount, Packard) using a scintillation cocktail (Microscint 0, Packard).
# The results are expressed as a percent inhibition of the control radioligand specific binding.
# (antagonist radioligand). Membrane homogenates (rat) of cerebral cortex (160 μg protein) were incubated for 60 min at 22° C. with 0.5 nM [3H]RX 821002 in the absence or presence of the test compound in a buffer containing 50 mM Tris-HCl (pH 7.4), 2 mM MgCl2 and 1 mM EDTA. Nonspecific binding was determined in the presence of 100 μM (−)epinephrine. Following incubation, the samples were filtered rapidly under vacuum through glass fiber filters (GF/B, Packard) presoaked with 0.3% PEI and rinsed several times with ice-cold 50 mM Tris-HCl using a 96-sample cell harvester (Unifilter, Packard). The filters were dried then counted for radioactivity in a scintillation counter (Topcount, Packard) using a scintillation cocktail (Microscint 0, Packard). The results are expressed as a percent inhibition of the control radioligand specific binding. The standard reference compound was yohimbine, which was tested in each experiment at several concentrations to obtain a competition curve from which its IC50 was calculated.
# SERT, NET and/or DAT = test: Radioligand binding assays at the monoamine transporters, general statements; design: species or system human; conditions: concentration of each tested compound 10 μM
# Text: A serotonin-norepinephrine-dopamine reuptake inhibitor (SNDRI), also known as a triple reuptake inhibitor (TRI), is a type of drug that acts as a combined reuptake inhibitor of the monoamine neurotransmitters serotonin, norepinephrine, and dopamine. It does this by concomitantly inhibiting the serotonin transporter (SERT), norepinephrine transporter (NET), and dopamine transporter (DAT), respectively. Inhibition of the reuptake of these neurotransmitters increases their extracellular concentrations and, therefore, results in an increase in serotonergic, adrenergic, and dopaminergic neurotransmission across the brain. However, the use of triple re-uptake inhibitors (especially the inhibition of DAT) in humans are of potential concern due to abuse liability. Cocaine is the most well-known triple-uptake inhibitor and is widely encountered as a drug of abuse. […] One assay to measure affinity of said compounds as described herein may be the percent inhibition from radioligand binding assay using cells expressing human transporters and receptors (Table 5), wherein the concentration of each tested compound in such assay is 10 μM. Alternatively other assays known to the skilled person may be used to measure the affinity of said compounds, wherein the concentration of each tested compound in such assay is 10 μM.
# Each compound was tested in a single concentration at 1.0 E-5 M and in duplicate. […]
Compound,Arc frontal cortex ± SEM (Arc mRNA),Arc striatum ± SEM (Arc mRNA),inhibition of the binding of a radioactively labeled ligand [1],"affinity to SERT, NET and/or DAT (percent inhibition) (SERT, NET and/or DAT)"
"Fc1cc(F)cc(OC2CNC2)c1.O=C(O)C(O)C(O)C(=O)O [Example 52B, 3-(3,5-difluorophenoxy)azetidine (+)-tartaric acid salt]",148 ± 6.9** % of control means,106 ± 7.1 % of control means,,
"Fc1cccc(OC2CNC2)c1F [Example 1A, 3-(2,3-difluorophenoxy)azetidine hydrochloric acid salt]",236 ± 9*** % of control means,149 ± 11* % of control means,more than 93%,
"Fc1ccc(F)c(OC2CNC2)c1F [Example 20, 3-(2,3,6-trifluorophenoxy)azetidine hydrochloric acid salt]",,,more than 93%,
"Fc1cc(F)c(F)c(OC2CNC2)c1 [Example 2, 3-(2,3,5-trifluorophenoxy)azetidine hydrochloric acid salt]",96 ± 20 % of control means,104 ± 12 % of control means,,
"Fc1cc(F)c(F)c(OC2CNC2)c1F [Example 3, 3-(2,3,5,6-tetrafluorophenoxy)-azetidine hydrochloric acid salt]",149 ± 11** % of control means,141 ± 9.0** % of control means,more than 93%,
"Clc1ccc(OC2CNC2)cc1Cl [Reference Compound, 3-(3,4-dichlorophenoxy)azetidine hydrochloric acid salt, reference compound]",,,,higher than 75%
"Fc1cc(F)cc(OC2CNC2)c1 [Example 52C, 3-(3,5-difluorophenoxy)azetidine hydrochloric acid salt]",,,more than 93%,
